The values below come from ChEMBL document CHEMBL4138138, “Addressing the Metabolic Stability of Antituberculars through Machine Learning” (ACS Med Chem Lett, 2017).

≈ marks a conversion by molar mass, not a printed value.

A short description of data set [1]: Cytotoxicity against African green monkey Vero cells assessed as reduction in cell viability after 72 hrs by MTS/PMS assay. The following applies: chlorocebus sabaeus. It is filed as cell-based.
The nature of data set [2]: Half life in mouse liver microsomes. It is filed as ADME, microsome. (In general: Liver microsomes are vesicles of endoplasmic reticulum, rich in cytochrome P450 enzymes.)
Data set [3] in a line: Intrinsic clearance in mouse liver microsomes. It is filed as ADME, microsome. The following applies: read-out: CLH.
Data set [4] relates to Mycobacterium tuberculosis. Nature of the data set: Antimycobacterial activity against Mycobacterium tuberculosis H37Rv measured after 1 week by resazurin assay. The data set is classed as functional. The following applies: 168 h. Background: The colour change of resazurin is a common sign of viable cells or microbes.
A short description of data set [5]: Selectivity index, ratio of CC50 for African green monkey Vero cells to MIC for Mycobacterium tuberculosis H37Rv. It is filed as toxicity. The following applies: read-out: Selectivity Index.

As usually defined, the CC50 is the concentration giving 50% cytotoxicity. Usually half-life stands for the time in which the quantity being followed falls by half. The MIC is the lowest concentration that inhibits growth of the organism. As to `Cc1ccc(CSc2nc(N)c3c4c(sc3n2)CC(C(C)(C)C)CC4)s1` (configuration not stated), the CC50 at 72 h in data set [1] was determined as 12.5 µg/mL (≈ 31 µM). This compound returned a half-life in data set [2] of 31.8 min. Also, the microsomal CLint in data set [3] is 21.8 µL/min/mg. The compound also had an MIC in data set [4] greater than 200 µg/mL.
For the compound `CC(C)(C)C1CCc2c(sc3nc(SCc4cccc([N+](=O)[O-])c4)nc(N)c23)C1` (configuration not stated), in data set [5], the selectivity ratio is greater than 20. In data set [1], the CC50 at 72 h was greater than 200 µg/mL. In data set [2], this compound had a half-life of 47.5 min. Also, the microsomal CLint in data set [3] is 14.6 µL/min/mg. Moreover, the minimum inhibitory concentration (MIC) in data set [4] was found to be 10 µg/mL (≈ 23.3 µM).
Turning to `CC(C)(C)C1CCc2c(sc3nc(SCc4ccnn4C4CCCCO4)nc(N)c23)C1` (configuration not stated), the CC50 at 72 h in data set [1] was found to be 6.2 µg/mL (≈ 13.5 µM). Moreover, the half-life in data set [2] came to 60.3 min. The microsomal CLint in data set [3] is 11.5 µL/min/mg. This compound also had an MIC in data set [4] of 25 µg/mL (≈ 54.6 µM).
Take `Cc1ccc(CSc2nc(N)c3c4c(sc3n2)CC(C(C)(C)C)CC4)o1` (configuration not stated): in data set [1], the 50% cytotoxic concentration (CC50) at 72 h amounted to 3.1 µg/mL (≈ 8 µM). In data set [2], this compound registered a half-life of 19.7 min. Besides, the microsomal CLint in data set [3] came out at 35.1 µL/min/mg. In addition, the lowest concentration to inhibit growth in data set [4] (MIC) was 200 µg/mL (≈ 516 µM).
`CC(C)(C)C1CCc2c(sc3nc(SCc4ccc(C(=O)O)cc4[N+](=O)[O-])nc(N)c23)C1` (configuration not stated): the cytotoxic concentration (CC50) at 72 h in data set [1] is greater than 50 µg/mL. Besides, the half-life in data set [2] stood at 120 min. In data set [3], the microsomal CLint was determined as 5.8 µL/min/mg. Further, the MIC in data set [4] fell in the range of 12.5 to 25 µg/mL (≈ 26.4 to 52.9 µM).
In the case of `CC(C)(C)C1CCc2c(sc3nc(SCc4ccc5c(c4)OCO5)nc(N)c23)C1` (configuration not stated), in data set [1], the half-maximal cytotoxic concentration (CC50) at 72 h was greater than 50 µg/mL. This compound gave a half-life in data set [2] of 64.2 min. The microsomal CLint in data set [3] stood at 10.8 µL/min/mg. The compound also gave an MIC in data set [4] greater than 200 µg/mL.
The matching figures for `COc1ccc([N+](=O)[O-])cc1CSc1nc(N)c2c3c(sc2n1)CC(C(C)(C)C)CC3` (configuration not stated): 12.5 µg/mL (≈ 27.3 µM), 87.7 min, 7.9 µL/min/mg and greater than 200 µg/mL.
For `Cc1nc(CSc2nc(N)c3c4c(sc3n2)CC(C(C)(C)C)CC4)sc1C` (configuration not stated) the same measures were 1.6 µg/mL (≈ 3.82 µM), 21.7 min, 31.9 µL/min/mg and 100 to 200 µg/mL (≈ 239 to 478 µM).
For `CC(C)(C)C1CCc2c(sc3nc(SCc4cc([N+](=O)[O-])ccc4O)nc(N)c23)C1` (configuration not stated), in data set [1], the CC50 at 72 h was found to be 50 µg/mL (≈ 112 µM). In addition, in data set [2], the half-life was found to be 58.2 min. Moreover, in data set [3], the microsomal CLint came to 11.9 µL/min/mg. The MIC in data set [4] came out at 200 µg/mL (≈ 450 µM).
The compound `CC(C)(C)C1CCc2c(sc3nc(SCc4nccs4)nc(N)c23)C1` (configuration not stated) showed a half-life in data set [2] of 66.6 min.
Same read-out and setting: to `Cc1cc(CSc2nc(N)c3c4c(sc3n2)CC(C(C)(C)C)CC4)no1` (configuration not stated) belongs 19 min.
With `CCOC(=O)CSc1nc(N)c2c3c(sc2n1)CC(C(C)(C)C)CC3` (configuration not stated), in data set [5], the selectivity ratio is 120 to 240. In addition, the CC50 at 72 h in data set [1] is 45 µg/mL (≈ 119 µM). This compound also displayed a half-life in data set [2] of less than 1 min. In data set [3], the microsomal CLint is greater than 1390 µL/min/mg. The minimal inhibitory concentration (MIC) in data set [4] lay within 0.19 to 0.38 µg/mL (≈ 0.501 to 1 µM).
As to `Cc1cccc(CSc2nc(N)c3c4c(sc3n2)CC(C(C)(C)C)CC4)n1` (configuration not stated), in data set [1], the cytotoxic concentration (CC50) at 72 h came out at 25 µg/mL (≈ 62.7 µM). Moreover, the half-life in data set [2] is 17 min. For the same compound, the microsomal CLint in data set [3] was found to be 40.8 µL/min/mg. This compound also had a minimum inhibitory concentration (MIC) in data set [4] greater than 200 µg/mL.
The matching figures for `CC(C)(C)C1CCc2c(sc3nc(SCc4ccc(C(=O)O)cc4)nc(N)c23)C1` (configuration not stated): 50 µg/mL (≈ 117 µM), 95 min, 7.3 µL/min/mg and 25 to 50 µg/mL (≈ 58.5 to 117 µM).
For the compound `Cn1nccc1CSc1nc(N)c2c3c(sc2n1)CC(C(C)(C)C)CC3` (configuration not stated), the selectivity ratio in data set [5] worked out at 10. The cytotoxic concentration (CC50) at 72 h in data set [1] came to 100 µg/mL (≈ 258 µM). Further, in data set [2], the half-life is 60.8 min. In addition, the microsomal CLint in data set [3] was 11.4 µL/min/mg. This compound showed an MIC in data set [4] of 10 µg/mL (≈ 25.8 µM).
Consider `CC(C)(C)C1CCc2c(sc3nc(SCc4ccc([N+](=O)[O-])cc4)nc(N)c23)C1` (configuration not stated), for which the CC50 at 72 h in data set [1] is greater than 50 µg/mL. Besides, the half-life in data set [2] was found to be 34.3 min. Besides, the microsomal CLint in data set [3] was 20.1 µL/min/mg. In data set [4], this compound showed an MIC greater than 200 µg/mL.
Take `NNC(=O)c1ccncc1` [ISONIAZID]: in data set [4], it took 0.039 µg/mL (≈ 0.284 µM) to inhibit growth (MIC).
